The source of these data is article PMC7412237, “Competition NMR for Detection of Hit/Lead Inhibitors of Protein–Protein Interactions” (Molecules, 2020).

Each structure is given as a SMILES string.

In one assay the target is T1, PD-1/PD-L1 complex (Homo sapiens, UniProt Q9NZQ7).
T1 construct: made in house; host or cells: E. coli BL21 (DE3)
As to conditions: ref [59]; cited from earlier work.

Another assay relates to effector T cells. As to conditions: T cells attenuated by soluble and membrane-bound PD-L1; ref [59]; cited from earlier work.
Another assay has as its target T2, (N66A)PD-1/PD-L1 complex (Homo sapiens, UniProt Q9NZQ7).
T2 construct: made in house; host or cells: E. coli BL21 (DE3)
The assay is described as follows: w-AIDA-NMR on (N66A)PD-1/PD-L1 complex. Format: binding.

For a further assay, the target named is T3, MdmX (Homo sapiens, UniProt O15151).
T3 sequence (O15151 18-111): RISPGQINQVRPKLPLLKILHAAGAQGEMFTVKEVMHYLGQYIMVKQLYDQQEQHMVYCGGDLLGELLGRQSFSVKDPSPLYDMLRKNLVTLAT
Put plainly: Fluorescence polarization competition assay (displacement of P2 peptide), MdmX. As to conditions: read-out: Ki towards MdmX; FP assay. For orientation: Fluorescence polarisation rises when a labelled molecule tumbles more slowly, as on binding a larger partner.

T2 sequence (Q9NZQ7 18-134, stated change not applied, one chain of several): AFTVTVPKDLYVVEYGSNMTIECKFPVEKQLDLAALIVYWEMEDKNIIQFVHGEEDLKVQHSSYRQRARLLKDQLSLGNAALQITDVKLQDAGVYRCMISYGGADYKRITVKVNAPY
T1 sequence (Q9NZQ7 18-134, one chain of several): as the sequence (Q9NZQ7 18-134, stated change not applied, one chain of several) above

Consider `Cc1c(COc2cc(OCc3cccc(C#N)c3)c(CN3C[C@H](O)C[C@@H]3C(=O)O)cc2Cl)cccc1-c1ccc2c(c1)OCCO2` [BMS-1166], for which the “Dissociation of human PD-1/PD-L1 complex in vitro” value on PD-1/PD-L1 complex is reported as “efficiently dissociates the human PD-1/PD-L1 complex in vitro”. Also, the “Activation of effector T cells” value with effector T cells is on record as “activates the effector T cells”. Further, the “Recovery of PD-1 signals in 1D 1H-NMR spectra” value at (N66A)PD-1/PD-L1 complex ((N66A)PD-1/PD-L1 complex, molar ratio 1:1) is “full recovery of the PD-1 signals”. Besides, at (N66A)PD-1/PD-L1 complex (equimolar amount of compound), the “Dissociation of (N66A)PD-1/PD-L1 complex (recovery of 2D HMQC signals)” value was “full recovery of 2D HMQC spectrum”.

For orientation: Ki means a dissociation constant, usually derived from enzyme kinetics or from competition with a known ligand. `CC(C)(C)NC(=O)C(c1c(C(=O)O)[nH]c2cc(Cl)ccc12)N(C=O)Cc1cc(F)cc(F)c1F` (centres unmarked) [compound 4]: at MdmX, the Ki turned out to be 27 µM.
